Results on four compounds are retold here after US7259174B2, “Imidazolidinone compounds” (National Health Research Institutes, priority 2004, dated 2007).

One experiment concerns EV71-2231. Put plainly: plaque reduction assay, EV71-2231. The conditions noted are these: Enterovirus A, vero cells, plaques counted after 96 hours at 35° C. The format is cell-based, Enterovirus 71 (EV71). From the text:
(§1) Enterovirus 71 (EV71) isolates were obtained from Chang Gung Children's Hospitals (Taipei, Taiwan) and National Cheng Kung University Hospital (Tainan, Taiwan). EV71-2231 and EV71-1743 were isolated from throat swabs. EV71-2086 was isolated from the skin lesion of an implicated HFMD (hand, foot, and mouth disease) patient. EV71-4643 was a clinical isolate obtained from the throat swabs of a patient with encephalitis). BrCr, the prototype of EV71, was obtained from the American Type Culture Collection (ATCC Accession No. VR 784). Vero cells (ATCC Accession No. CCL-81) were used for virus isolation and propagation.
(§2) The antiviral activity of a number of imidazolidinone compounds was determined by a standard plaque reduction assay as described in Otto et al., Antimicrobial Agents & Chemotherapy, 1985, 27:883-886.
(§3) A compound to be tested was serially diluted and included in the agar-medium overlay. Plates were incubated at 35° C. for 96 hours. The plaques were stained with crystal violet and counted.
On the technique in general: In a plaque reduction assay, fewer plaques than in the control indicate reduced infectivity or spread.

A further experiment has as its system EV71-4643. Kind of experiment: plaque reduction assay, EV71-4643. Format: cell-based, Enterovirus 71 (EV71). The conditions noted are these: Enterovirus A, vero cells, plaques counted after 96 hours at 35° C.
Description: as §1, §2, §3

As a reminder, the pIC50 is −log10 of the IC50, conventionally taken in molar units. Lower therefore signals a high IC50.

pIC50: −log10 of the molar value.

Take `CCO/N=C/c1ccc(OCCC(C)CCN2CCN(c3ccncc3)C2=O)cc1` (centres unmarked) [Compound 5, 4-[3-methyl-5-(2-oxo-3-pyridin-4-yl-imidazolidin-1-yl)-pentyloxy]-benzaldehyde O-ethyl-oxime]: the pIC50 in the experiment with EV71-2231 and in the experiment on EV71-4643 was ≥ 7.42 in each case.

Regarding `CCO/N=C/c1ccc(OCCC(C)(C)CCN2CCN(c3ccncc3)C2=O)cc1` [Compound 6, 4-[3,3-dimethyl-5-(2-oxo-3-pyridin-4-yl-imidazolidin-1-yl)-pentyloxy]-benzaldehyde O-ethyl-oxime], the pIC50 in the experiment with EV71-2231 and in the experiment with EV71-4643 was ≥ 7.42 each time.

Regarding `CCO/N=C/c1ccc(OCC[C@H](C)CCN2CCN(c3ccncc3)C2=O)cc1` [Compound 7, 4-[(R)-3-methyl-5-(2-oxo-3-pyridin-4-yl-imidazolidin-1-yl)-pentyloxy]-benzaldehyde O-ethyl-oxime], the pIC50 in the experiment with EV71-2231 and in the experiment with EV71-4643 was ≥ 7.42 each time.

With `CCO/N=C/c1ccc(OCC[C@@H](C)CCN2CCN(c3ccncc3)C2=O)cc1` [Compound 8, 4-[(S)-3-methyl-5-(2-oxo-3-pyridin-4-yl-imidazolidin-1-yl)-pentyloxy]-benzaldehyde O-ethyl-oxime], the pIC50 with EV71-2231 and with EV71-4643 was ≥ 7.42 throughout.
